We go through 1 compound from patent US8394414B2, “Method for drug delivery to the pulmonary system” (MannKind Corporation, priority 1995, dated 2013).

This data set can be described thus: in vivo. Conditions: sheep, sc. The procedure: Sheep (approximately 100 kg) were housed at SUNY Stony Brook Health Sciences Center. Animals were anesthetized with acepromazine/thiopental sodium. A suspense of diketopiperazine microparticle/sCT (10.04 mg/mL in 0.9% saline) was instilled in each lung of each sheep. A solution of sCT (10 mg/mL in 0.9% saline) was administered by subcutaneous injection to control animals. An intravenous catheter was placed in the cephalic vein of each anesthetized animal for blood sampling.
The following dosing solutions were prepared on the day of the experiment. The volume of the dose delivered was calculated based on the actual weight of the animal as described below.
Blood samples were drawn at the following time points: −5, 0 (predose), 1, 3, 5, 10, 15, 30, 45, 60, 90 minutes, 2, 4, and 6 hours. […]
Plasma sCT concentration was determined using radioimmunoassay (Research and Diagnostic Antibodies, Berkeley, Calif., catalog #K-1235).
The pharmacokinetics of sCT in sheep was determined after lung instillation of a formulation of sCT in diketopiperazine microparticle (2.47% by weight sCT) at a sCT dose of 100 μg/kg. […]
The truncated AUC (0 to 6 hours) was calculated for each animal using the trapezoidal rule. The bioavailability (F %) for each animal was calculated from the ration of the AUCs for the pulmonary and subcutaneous administrations.

The term Tmax denotes the time from dosing to the highest level. Usually AUC(0-t) stands for the area under the concentration-time curve up to a stated or last time point. Low values mean low exposure, high ones high exposure. Consider `CC(C)C[C@H](NC(=O)[C@H](CCCCN)NC(=O)CNC(=O)[C@H](CC(C)C)NC(=O)[C@@H](NC(=O)[C@@H]1CSSC[C@H](N)C(=O)N[C@@H](CO)C(=O)N[C@@H](CC(N)=O)C(=O)N[C@@H](CC(C)C)C(=O)N[C@@H](CO)C(=O)N[C@@H]([C@@H](C)O)C(=O)N1)C(C)C)C(=O)N[C@@H](CO)C(=O)N[C@@H](CCC(N)=O)C(=O)N[C@@H](CCC(=O)O)C(=O)N[C@@H](CC(C)C)C(=O)N[C@@H](Cc1c[nH]cn1)C(=O)N[C@@H](CCCCN)C(=O)N[C@@H](CC(C)C)C(=O)N[C@@H](CCC(N)=O)C(=O)N[C@H](C(=O)N[C@@H](Cc1ccc(O)cc1)C(=O)N1CCC[C@H]1C(=O)N[C@@H](CCCNC(=N)N)C(=O)N[C@H](C(=O)N[C@@H](CC(N)=O)C(=O)N[C@H](C(=O)NCC(=O)N[C@@H](CO)C(=O)NCC(=O)N[C@H](C(=O)N1CCC[C@H]1C(N)=O)[C@@H](C)O)[C@@H](C)O)[C@@H](C)O)[C@@H](C)O` [sCT, salmon calcitonin], for which the Tmax is 2 h. Besides, the AUC(0-t) (100 ug/kg) stood at 38.8 ng·h/mL.
